Values joined by “and” are separate entries in the source; they are usually repeats but may differ in a detail not shown here. Identical values can stand only once. “Also recorded” adds a separate entry of the source. Like-named read-outs stand apart in the source and are kept apart here. Marks after values point to notes of the source that are not given here.

Assay [1] addresses T1, PARP1 (Homo sapiens, UniProt P09874). Briefly: Fluorescence polarization association/dissociation of fl-Ola, with p18mer or Nuc165, with or without HPF1. The assay is classed as binding. Also on record: Wild-type PARP1 and PARP2 were expressed and purified as previously described; made in house; on rate (observed, single run): unit not given here. On the technique in general: Polarisation of emitted light reports the rotation of a fluorescent probe.

The target in assay [2] is T2, PARP2 (Homo sapiens, UniProt Q9UGN5).
T2 construct: Wild-type PARP1 and PARP2 were expressed and purified as previously described; made in house
The assay is described as above. The assay is classed as binding. Also on record: On (individual replicates): unit not given here.

Assay [3] has as its target T1, PARP1. The assay is described as follows: Release of fluorescently labeled p18mer DNA (fluorescence polarization) upon NAD+ addition, KI determination for PARPi, with or without HPF1. The class given is biochemical. Also on record: Wild-type PARP1 and PARP2 were expressed and purified as previously described; made in house.
Method: (§1) Starting with a complex of PARP1 or PARP2 bound to a PARPi and fluorescently labeled DNA, we monitor the loss of fluorescence polarization upon addition of high concentrations of NAD^+ (2 mM) as the labeled DNA is released from the PARylated PARPs (Fig. 1a).
(§2) Intuitively one might expect the observed rate of release of labeled DNA to reflect the slow dissociation of PARPi from the complex (koff; see Fig. 1a). However, the kinetics are actually more complex as there is competition between the inhibitor re-binding (kon[I]) and the binding of, and reaction with, NAD^+ (k2[NAD^+]) (Fig. 1a).
(§3) Next, 10 µL of PARP1 or PARP2 (10 nM) premixed with fluorescein labeled p18mer DNA (5 nM), was added to the various dilutions of PARPi and then incubated for 30 min to ensure complete association. Dissociation of labeled DNA was initiated by addition of 10 µL of NAD^+ (2 mM). […] We emphasize that the same correction is applied to the data for all PARPi. […] We can use the KI (derived from the slope of the replot, Fig. 2) and the minimal koff to calculate a minimal kon (KI = koff/kon, Supplementary Table 2).
In assay [4] the target is T1, PARP1. Conditions: cited from earlier work.
Assay [5] concerns the target T2, PARP2. Briefly: Release of fluorescently labeled p18mer DNA (fluorescence polarization) upon NAD+ addition, KI determination for PARPi, with or without HPF1. The assay is classed as biochemical.
Method: as §1, §2, §3
Setting [6] is: PARP1, +HPF1, single experiment.
[7] abbreviates: PARP1, without HPF1, single experiment.
The mark [8] stands for this setting: PARP2, +HPF1, single experiment.
Setting [9] is: PARP2, without HPF1 (apo), single experiment.
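For Fold (t-test) in this document: PARP1 bound to fluorescein-tagged DNA and preincubated with inhibitor, then high NAD+ added, drop in fluorescence polarization tracked as the DNA dissociates.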
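For Inhibition of DNA release from PARP1 in this document: PARP1 bound to fluorescein-tagged DNA and preincubated with inhibitor, then high NAD+ added, drop in fluorescence polarization tracked as the DNA dissociates.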
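For KI in this document: PARP1 bound to fluorescein-tagged DNA and preincubated with inhibitor, then high NAD+ added, drop in fluorescence polarization tracked as the DNA dissociates.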
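For Kd in this document: fluorescence polarization read every minute over 1000 min, association and dissociation traces fitted to a single exponential.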
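For Off (individual replicates) in this document: fluorescence polarization read every minute over 1000 min, association and dissociation traces fitted to a single exponential.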
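For On (individual replicates) in this document: fluorescence polarization read every minute over 1000 min, association and dissociation traces fitted to a single exponential.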
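For On average in this document: fluorescence polarization read every minute over 1000 min, association and dissociation traces fitted to a single exponential.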
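For koff (est) average in this document: PARP1 bound to fluorescein-tagged DNA and preincubated with inhibitor, then high NAD+ added, drop in fluorescence polarization tracked as the DNA dissociates.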
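For slope in this document: slope of the inhibitor-concentration replot from which KI is derived.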

T2 sequence (Q9UGN5 whole entry): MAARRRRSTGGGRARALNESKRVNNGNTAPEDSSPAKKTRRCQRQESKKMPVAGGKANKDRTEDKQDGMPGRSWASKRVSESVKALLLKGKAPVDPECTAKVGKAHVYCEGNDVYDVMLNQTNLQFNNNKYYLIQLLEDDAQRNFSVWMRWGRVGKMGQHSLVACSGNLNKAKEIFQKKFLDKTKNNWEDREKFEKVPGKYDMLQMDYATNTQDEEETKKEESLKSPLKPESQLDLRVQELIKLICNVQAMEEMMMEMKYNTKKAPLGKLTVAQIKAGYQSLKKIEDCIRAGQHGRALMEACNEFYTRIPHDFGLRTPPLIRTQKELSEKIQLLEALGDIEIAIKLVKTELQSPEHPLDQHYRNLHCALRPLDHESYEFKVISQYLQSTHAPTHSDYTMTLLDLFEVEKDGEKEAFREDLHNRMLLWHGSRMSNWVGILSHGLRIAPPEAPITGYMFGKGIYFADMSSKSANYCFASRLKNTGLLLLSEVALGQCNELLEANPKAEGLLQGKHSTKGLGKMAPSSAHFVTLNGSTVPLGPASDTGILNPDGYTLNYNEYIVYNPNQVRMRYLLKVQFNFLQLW
T1 sequence (P09874 whole entry): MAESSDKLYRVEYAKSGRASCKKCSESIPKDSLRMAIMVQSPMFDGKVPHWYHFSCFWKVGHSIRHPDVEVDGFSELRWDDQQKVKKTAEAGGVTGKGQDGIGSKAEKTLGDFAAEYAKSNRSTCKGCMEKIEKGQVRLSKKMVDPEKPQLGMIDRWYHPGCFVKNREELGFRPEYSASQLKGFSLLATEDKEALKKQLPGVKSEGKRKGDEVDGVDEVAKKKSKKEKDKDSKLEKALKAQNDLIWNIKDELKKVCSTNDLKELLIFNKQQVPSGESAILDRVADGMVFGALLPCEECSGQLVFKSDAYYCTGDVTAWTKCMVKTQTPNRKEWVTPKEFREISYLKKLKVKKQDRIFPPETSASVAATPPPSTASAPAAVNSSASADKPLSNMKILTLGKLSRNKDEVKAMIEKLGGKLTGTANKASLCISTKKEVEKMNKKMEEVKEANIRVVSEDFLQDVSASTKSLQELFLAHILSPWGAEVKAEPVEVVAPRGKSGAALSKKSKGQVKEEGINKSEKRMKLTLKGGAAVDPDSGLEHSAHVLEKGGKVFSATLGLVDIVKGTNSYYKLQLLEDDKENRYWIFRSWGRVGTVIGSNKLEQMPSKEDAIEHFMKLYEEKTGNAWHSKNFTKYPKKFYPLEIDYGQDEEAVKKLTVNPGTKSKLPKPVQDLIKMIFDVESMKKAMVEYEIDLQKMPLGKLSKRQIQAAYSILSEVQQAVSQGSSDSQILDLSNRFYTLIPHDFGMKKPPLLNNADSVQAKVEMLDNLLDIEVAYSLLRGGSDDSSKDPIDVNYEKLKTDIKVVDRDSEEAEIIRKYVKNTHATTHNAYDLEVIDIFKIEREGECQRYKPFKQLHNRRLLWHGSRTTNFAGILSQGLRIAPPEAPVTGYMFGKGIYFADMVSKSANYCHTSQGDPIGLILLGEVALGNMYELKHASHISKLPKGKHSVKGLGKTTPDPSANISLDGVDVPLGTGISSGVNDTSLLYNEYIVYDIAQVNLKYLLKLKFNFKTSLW

One may read the Kd as the free concentration of one partner at which half of the binding sites on the other are occupied at equilibrium, for simple one-to-one binding. Turning to `CC1=CC(C)=[N+]2C1=Cc1ccc(CCC(=O)N3CCN(C(=O)c4cc(Cc5n[nH]c(=O)c6ccccc56)ccc4F)CC3)n1[B-]2(F)F` [fl-Ola], the “off rate (single run)” value in assay [1] (PARP1, Nuc165) is 0.004215 per min and 0.004911 per min and 0.004071 per min and 0.00473 per min and 0.004639 per min; in assay [1] (PARP1, Nuc165+HPF1) it was 0.001434 per min and 0.001853 per min and 0.001613 per min and 0.002575 per min and 0.002863 per min; in assay [1] (PARP1, buffer), 0.001297 per min and 0.001272 per min and 0.001404 per min and 0.001129 per min; in assay [1] (PARP1, p18mer), 0.005934 per min and 0.004771 per min and 0.005583 per min and 0.004919 per min and 0.005548 per min; in assay [1] (PARP1, p18mer+HPF1), 0.002334 per min and 0.002172 per min and 0.002936 per min and 0.003134 per min and 0.003344 per min. Also, the on rate average worked out at 2.17 per uM per sec in assay [1] (PARP1, Nuc165); 4.35 per uM per sec in assay [1] (PARP1, Nuc165+HPF1); 0.39 per uM per sec in assay [1] (PARP1, buffer); 1.27 per uM per sec in assay [1] (PARP1, p18mer); 1.95 per uM per sec in assay [1] (PARP1, p18mer+HPF1). In addition, the “on rate (observed, single run)” value is 0.03904 and 0.05638 and 0.0311 and 0.04561 and 0.04092 and 0.03175 and 0.05953 in assay [1] (PARP1, Nuc165+HPF1); 0.002763 and 0.003297 and 0.003517 and 0.004488 and 0.003954 and 0.005011 and 0.004368 and 0.00415 in assay [1] (PARP1, buffer); 0.02205 and 0.01731 and 0.01849 and 0.01852 and 0.01515 and 0.01847 and 0.02629 in assay [1] (PARP1, p18mer+HPF1). Also, the “Off (individual replicates)” value in assay [2] (PARP2, Nuc147) is 0.000128 per sec and 0.000098 per sec and 0.000096 per sec and 0.000087 per sec; in assay [2] (PARP2, Nuc147/HPF1), 0.000060 per sec and 0.000066 per sec and 0.000047 per sec; in assay [2] (PARP2, p18mer), 0.000127 per sec and 0.000133 per sec and 0.000111 per sec and 0.000117 per sec; in assay [2] (PARP2, p18mer/HPF1), 0.000135 per sec and 0.000112 per sec and 0.000093 per sec. The “On (individual replicates)” value in assay [2] (PARP2, Nuc147) was 0.06047 and 0.0458 and 0.0509 and 0.06962; in assay [2] (PARP2, Nuc147/HPF1), 0.02342 and 0.02572 and 0.02231 and 0.02096; in assay [2] (PARP2, p18mer), 0.06673 and 0.08057 and 0.1117; in assay [2] (PARP2, p18mer/HPF1), 0.06627 and 0.04795 and 0.05623 and 0.05079. The On average in assay [2] (PARP2, Nuc147) was determined as 5.7 per uM per sec; in assay [2] (PARP2, Nuc147/HPF1), 2.3 per uM per sec; in assay [2] (PARP2, p18mer) it was 8.6 per uM per sec; in assay [2] (PARP2, p18mer/HPF1), 5.5 per uM per sec. In addition, the Kd in assay [2] (PARP2, Nuc165) amounted to 18 ± 4.6 pM; in assay [2] (PARP2, Nuc165/HPF1), 24.9 ± 4.7 pM; in assay [2] (PARP2, p18mer), 14.1 ± 3.9 pM; in assay [2] (PARP2, p18mer/HPF1) it was 20.5 ± 4.8 pM. The Off average in assay [2] (PARP2, p18mer) came out at 0.44 per hr.
Consider `NC(=O)c1ccc(I)c([N+](=O)[O-])c1` [iniparib], for which the “Inhibition of DNA release from PARP1” value in assay [3] (PARP1, 20-2500 nM) is listed as “not an inhibitor of PARP1; also recorded: does not have this effect”.
For `CNCc1ccc(-c2[nH]c3cc(F)cc4c3c2CCNC4=O)cc1` [Rucaparib], the PARP-trapping result in assay [4] is “strong”. Also, the t1/2est average in assay [3] (PARP1, +HPF1, average) was 250 min; in assay [3] (PARP1, without HPF1, average), 57.5 min. In assay [3] (setting [6]), this compound had a t1/2est of 250 min.
Consider `C[C@]1(c2nc3c(C(N)=O)cccc3[nH]2)CCCN1` [Veliparib], for which the PARP-trapping entry in assay [4] is on record as “weak”.
As to `O=C(c1cc(Cc2n[nH]c(=O)c3ccccc23)ccc1F)N1CCN(C(=O)C2CC2)CC1` [Olaparib], in assay [5], the t1/2est was 4.17 min and 4.5 min and 3 min and 5.5 min and 4 min and 2.83 min; the t1/2est average was 4.05 min and 4.08 min.
As for `NC(=O)c1cccc2cn(-c3ccc([C@@H]4CCCNC4)cc3)nc12` [Nira], the t1/2est average in assay [3] (PARP1, +HPF1, average) is 28.33 min; in assay [3] (PARP1, without HPF1, average), 8.7 min. Besides, the slope in assay [3] (setting [6]) is 60.3 s/nM and 61 s/nM and 66.7 s/nM. The t1/2est in assay [3] (setting [6]) was 29 min and 28 min; in assay [3] (setting [7]), 5.5 min and 11 min and 9.5 min and 8 min.
By Ki is commonly meant the equilibrium dissociation constant of an inhibitor or competing ligand from its target. With `COC1CCN(C(=O)c2cc(Cc3n[nH]c(=O)c4ccccc34)ccc2F)CC1` [AZD-2461], in assay [3] (PARP1, fold-difference in Ki caused by the addition of HPF1), the “Fold (t-test)” value was 2.9 ** fold. Moreover, the Ki in assay [3] (PARP1 alone, p18mer DNA, 2 mM NAD+, read-out: Ki) came to 2200 ± 600 pM.
Turning to `COC1CCN(C(=O)c2cc(Cc3n[nH]c(=O)c4ccccc34)ccc2F)CC1` [AZD], the “koff (est) average” value in assay [3] (PARP1, +HPF1, average) was ≥ 0.00058 s⁻¹; in assay [3] (PARP1, without HPF1, average) it was ≥ 0.00295 s⁻¹. The t1/2est average in assay [3] (PARP1, +HPF1, average) stood at 20.75 min; in assay [3] (PARP1, without HPF1, average), 4.72 min. Further, the Ki in assay [3] (PARP1, +HPF1, average, read-out: Ki average) is 780 pM; in assay [3] (PARP1, +HPF1, single experiment, read-out: Ki), 820 pM and 780 pM and 600 pM and 930 pM; in assay [3] (PARP1, without HPF1, average, read-out: Ki average), 2230 pM; in assay [3] (PARP1, without HPF1, single experiment, read-out: Ki), 2960 pM and 1690 pM and 1760 pM and 1730 pM and 2720 pM and 2530 pM. Also, the slope is 49 s/nM and 51 s/nM and 67.1 s/nM and 43 s/nM in assay [3] (setting [6]); 9.4 s/nM and 16.4 s/nM and 15.8 s/nM and 16.1 s/nM and 10.2 s/nM and 11.0 s/nM in assay [3] (setting [7]). For the same compound, in assay [3] (setting [6]), the t1/2est is 17 min and 20 min and 29 min. In addition, the kon ratio in assay [3] (PARP1, ratio of averages with and without HPF1) stood at 1.75. Also, in assay [3] (PARP1, ratio of averages without and with HPF1), the Ki ratio is on record as 2.85.
Regarding `NC(=O)c1cccc2[nH]c(-c3ccc([C@@H]4CCCN4)cc3F)nc12` [A-966492], the t1/2est average turned out to be 38.5 min in assay [3] (PARP1, +HPF1, average) and 4.58 min in assay [3] (PARP1, without HPF1, average). Besides, the slope is 149 s/nM and 124 s/nM and 110 s/nM in assay [3] (setting [6]); 34.7 s/nM and 49.9 s/nM and 38.6 s/nM in assay [3] (setting [7]). The t1/2est in assay [3] (setting [6]) was 39 min and 37.5 min; in assay [3] (setting [7]), 4.75 min and 4.5 min.
For `Cn1ncnc1[C@H]1c2n[nH]c(=O)c3cc(F)cc(c23)N[C@@H]1c1ccc(F)cc1` [Tala], the t1/2est average in assay [5] (PARP2, +HPF1, average) was 9.17 min; in assay [5] (PARP2, without HPF1, average), 6.83 min; in assay [3] (PARP1, +HPF1, average), >333.33 min; in assay [3] (PARP1, without HPF1, average) it was 121.7 min. For the same compound, the slope in assay [5] (setting [8]) is 91 s/nM and 65 s/nM; in assay [5] (setting [9]) it was 180 s/nM and 131 s/nM and 191 s/nM; in assay [3] (setting [7]) it was 1743 s/nM and 2697 s/nM and 2953 s/nM and 2451 s/nM. Further, the t1/2est in assay [5] (setting [8]) was 11 min and 10 min and 6.5 min; in assay [5] (setting [9]), 7.5 min and 6.5 min; in assay [3] (setting [6]), 333.33 min; in assay [3] (setting [7]), 138.5 min and 95.83 min and 118.5 min and 134 min.
